In brackets after ≈: the same amount, converted by molar mass. Activity calls are given as the source filed them. No cut-off for these calls is given here.
Columns and labels:
[1] = molecular target: T1, DNA repair protein REV1 (Homo sapiens, UniProt Q9UBZ9); assay: Displacement of FAM-labelled polkappa-RIR peptide from recombinant human C-terminal Rev1 (1158 to 1251 residues) expressed in Escherichia coli BL21(DE3) after 1 hr by fluorescence polarization assay
T1 sequence (Q9UBZ9 whole entry): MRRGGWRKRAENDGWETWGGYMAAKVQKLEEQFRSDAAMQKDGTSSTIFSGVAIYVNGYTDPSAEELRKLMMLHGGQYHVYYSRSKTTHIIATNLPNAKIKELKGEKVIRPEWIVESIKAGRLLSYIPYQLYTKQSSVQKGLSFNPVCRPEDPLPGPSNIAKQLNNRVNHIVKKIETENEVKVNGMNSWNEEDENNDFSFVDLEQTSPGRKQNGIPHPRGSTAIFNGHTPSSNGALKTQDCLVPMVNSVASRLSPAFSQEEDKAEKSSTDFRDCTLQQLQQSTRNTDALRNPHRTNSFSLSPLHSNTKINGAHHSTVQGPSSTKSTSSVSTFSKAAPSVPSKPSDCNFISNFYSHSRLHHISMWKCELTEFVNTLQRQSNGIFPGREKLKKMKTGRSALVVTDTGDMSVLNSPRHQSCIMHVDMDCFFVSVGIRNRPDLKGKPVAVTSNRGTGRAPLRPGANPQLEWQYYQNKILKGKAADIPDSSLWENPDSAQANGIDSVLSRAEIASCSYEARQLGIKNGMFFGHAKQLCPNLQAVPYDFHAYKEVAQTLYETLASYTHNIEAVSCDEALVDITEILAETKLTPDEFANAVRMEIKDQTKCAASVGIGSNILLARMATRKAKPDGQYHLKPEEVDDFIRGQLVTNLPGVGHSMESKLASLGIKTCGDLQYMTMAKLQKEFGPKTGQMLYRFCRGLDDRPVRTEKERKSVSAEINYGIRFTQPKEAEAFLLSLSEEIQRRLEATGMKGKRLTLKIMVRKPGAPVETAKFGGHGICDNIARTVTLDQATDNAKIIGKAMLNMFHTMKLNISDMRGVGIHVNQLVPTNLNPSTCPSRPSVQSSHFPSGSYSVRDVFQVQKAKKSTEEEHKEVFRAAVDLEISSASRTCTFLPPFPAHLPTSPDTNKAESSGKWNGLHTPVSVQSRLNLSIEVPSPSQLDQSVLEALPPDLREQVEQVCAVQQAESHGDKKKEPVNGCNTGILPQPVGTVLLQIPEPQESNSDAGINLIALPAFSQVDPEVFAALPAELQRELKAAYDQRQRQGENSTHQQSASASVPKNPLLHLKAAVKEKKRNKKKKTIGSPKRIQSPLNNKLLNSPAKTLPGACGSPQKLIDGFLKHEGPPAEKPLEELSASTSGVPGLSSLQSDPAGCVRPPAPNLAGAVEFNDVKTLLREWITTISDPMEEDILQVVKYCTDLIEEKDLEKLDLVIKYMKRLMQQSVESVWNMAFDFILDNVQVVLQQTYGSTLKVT

[2] = molecular target: T2, DNA repair protein REV1 (Homo sapiens) (UniProt Q9UBZ9); assay: Displacement of FAM-labelled polkappa-RIR peptide from recombinant human C-terminal Rev1 (1158 to 1251 residues) expressed in Escherichia coli BL21(DE3) at 10 uM after 1 hr by fluorescence polarization assay relative to control
T2 sequence (whole entry): T1 sequence (Q9UBZ9 whole entry)

[3] = system: U2OS; assay: Potentiation of cisplatin-induced cytotoxicity in cisplatin-resistant human U2OS cells assessed as cisplatin GI50 at 50 uM after 72 hrs by MTS assay (reference value: 23.9 +/- 1.9 uM); format: functional
[4] = Growth inhibition of cisplatin-resistant human U2OS cells after 72 hrs by MTS assay; format: cell-based
[5] = system: U2OS; assay: Potentiation of cisplatin-induced cytotoxicity in cisplatin-resistant human U2OS cells assessed as cisplatin GI50 at 25 uM after 72 hrs by MTS assay (reference value: 23.9 +/- 1.9 uM); format: functional
[6] = Stability of the compound in pH 7.4 phosphate buffered saline assessed as parent compound remaining at 5 uM; format: physicochemical; conditions: read-out: Stability
[7] = Permeability of the compound by PAMPA; format: ADME
[8] = Drug metabolism in human liver microsomes assessed as dehydrogenation at 10 uM after 30 to 60 mins by LC-MS/MS analysis; format: ADME, microsome
[9] = Drug metabolism in human liver microsomes assessed as oxidation at 10 uM after 30 to 60 mins by LC-MS/MS analysis; format: ADME, microsome
[10] = Drug metabolism in human liver microsomes assessed as demethylation by measuring 2-(1-acetylpiperidine-4-carboxamido)-5-propylthiophene-3-carboxylic acid formation at 10 uM after 30 to 60 mins by LC-MS/MS analysis; format: ADME, microsome
[11] = Solubility of the compound in pH 4 phosphate buffered saline
[12] = Solubility of the compound in pH 7.4 phosphate buffered saline
[13] = Drug metabolism in human liver microsomes assessed as oxidation and dehydrogenation at 10 uM after 30 to 60 mins by LC-MS/MS analysis; format: ADME, microsome
[14] = Intrinsic clearance in human liver microsomes at 1 uM; format: ADME, microsome
[15] = Ratio of solubility in pH 7.4 phosphate buffered saline to pH 4 phosphate buffered saline; format: physicochemical; conditions: buffer
[16] = Drug metabolism in human liver microsomes assessed as hydrolysis by measuring methyl 2-(piperidine-4-carboxamido)-5-propylthiophene-3-carboxylate formation at 10 uM after 30 to 60 mins by LC-MS/MS analysis; format: ADME, microsome
[17] = system: U2OS; assay: Potentiation of cisplatin-induced cytotoxicity in cisplatin-resistant human U2OS cells assessed as increase in cisplatin-induced reduction in colony survival at 20 uM treated for 24 hrs measured after 7 days by Coomassie Brilliant Blue R-250 staining based assay; format: functional, cell-based
[18] = system: U2OS; assay: Potentiation of cisplatin-induced cytotoxicity in cisplatin-resistant human U2OS cells assessed as cisplatin GI50 at 10 uM after 72 hrs by MTS assay (reference value: 23.9 +/- 1.9 uM); format: functional
[19] = Retention time of the compound in human liver microsomes at 10 uM by LC-MS/MS analysis; format: ADME, microsome

SMILES	IC50 [1]	Kd [1]	Ki [1]	inhibition [2]	GI50 [3]	GI50 at 72 h [4]	further results
O=C(CN1CCN(c2ccc(F)cc2)CC1)Nc1ccccc1	28 µM	42.2 µM	46.6 µM	> 85%			
CCCCc1ccc(-n2nnc(C(=O)N(C)C3CCS(=O)(=O)C3)c2C)cc1 (stereo not drawn)	5.9 µM	3.6 µM	4.9 µM	> 85%	20.1 µM	> 100 µM	GI50 [5]: 25.7 µM
COc1ccc(OC)c(-c2csc(N3CCN(C(=O)c4ccco4)CC3)n2)c1	6.2 µM	3.7 µM	4.8 µM	> 85%	11.8 µM	> 100 µM	GI50 [5]: 11.9 µM
CCCc1cc(C(=O)OC)c(NC(=O)C2CCN(C(C)=O)CC2)s1	4.1 µM	3.5 µM	3.6 µM	> 85%	19.6 µM	> 100 µM	remaining at 5 µM [6]: 95%; log(permeability) [7]: -4.5; Drug metabolism [8]: Metabolite_Detected; Drug metabolism [9]: Metabolite_Detected; Drug metabolism [10]: Metabolite_Detected; solubility [11]: 21.1 µM (≈ 7.44 µg/mL); solubility [12]: 63.3 µM (≈ 22.3 µg/mL); Drug metabolism [13]: Metabolite_Detected; CLH [14]: 18.8 µL/min/mg; GI50 [5]: 12.6 µM; Ratio [15]: 3; Drug metabolism [16]: Metabolite_Detected
CCc1ccc(NC(=O)CN2CCN(c3ccccc3)CC2)cc1	> 50 µM	49.5 µM		> 85%			
N#Cc1ccc(NC(=O)CN2CCN(c3ccc(F)cc3)CC2)cc1	> 50 µM	109 µM		> 85%			
Cc1ccc(C(=O)N2CCN(c3ccccc3)CC2)cc1S(=O)(=O)N1CCOCC1	3.5 µM	2.9 µM	3 µM	> 85%	28.2 µM	> 100 µM	
COc1cc2c(cc1OC)CN(Cc1ccc(OCc3ccccc3)cc1)CC2	11.9 µM	12.6 µM	14.5 µM	> 85%	10.1 µM	> 100 µM	GI50 [18]: 16.5 µM; Activity [17]: Active; GI50 [5]: 13.4 µM
CCCc1cc(C(=O)OC)c(NC(=O)C2CCNCC2)s1							Retention_time [19]: 10.58 min
CCCc1cc(C(=O)O)c(NC(=O)C2CCN(C(C)=O)CC2)s1							Retention_time [19]: 3.8 min
Cc1cccc(N2CCN(CC(=O)Nc3ccc(F)cc3)CC2)c1C	21.1 µM	12.4 µM	14.8 µM	> 85%			
CCS(=O)(=O)N(C)c1ccc(C(=O)N2CCN(c3ccccc3OC)CC2)cc1	4.6 µM	4.3 µM	4.7 µM	> 85%	11.9 µM	> 100 µM	GI50 [5]: 13.3 µM
CCc1ccc(NC(=O)CN2CCN(c3ccc(F)cc3)CC2)cc1	2.5 µM	6.5 µM	6.9 µM	> 85%			
CC(=O)C(C)n1c(CN2CCN(c3cccc(Cl)c3)CC2)nc2c1c(=O)n(C)c(=O)n2C (stereo not drawn)	2.5 µM	2.1 µM	2 µM	> 85%	7.8 µM	> 100 µM	GI50 [18]: 19.3 µM; GI50 [5]: 12.3 µM

Further lines, with some results ahead:

IC50 [1]	Kd [1]	Ki [1]	inhibition [2]	SMILES	GI50 [3]	GI50 at 72 h [4]	further results
9.4 µM	8.2 µM	7.4 µM	> 85%	COC(=O)c1cc(C)sc1NC(=O)C1CCN(C(C)=O)CC1			
4.6 µM	6.9 µM	8.9 µM	> 85%	CCn1c2ccccc2c2cc(NC(=O)N3CCC(C(C)=O)CC3)ccc21			
2.5 µM	4.4 µM	4.6 µM	> 85%	CC(=O)N1CCC(C(=O)Nc2sc3c(c2C(=O)NC2CC2)CCC(C)C3)CC1 (stereo not drawn)	15.3 µM	> 100 µM	Activity [17]: inactive; GI50 [5]: 24.4 µM
5.9 µM	7.8 µM	11.6 µM	> 85%	CCCc1cc(C(=O)OCC)c(NC(=O)C2CCN(C(C)=O)CC2)s1			
21.5 µM	26.6 µM	31.5 µM	> 85%	CC(=O)N1CCC(C(=O)Nc2sc3c(c2C(=O)NC2CC2)CCCC3)CC1			
4.9 µM	9.5 µM	11.9 µM	> 85%	CCCC1CCc2c(sc(NC(=O)C3CCN(C(C)=O)CC3)c2C(N)=O)C1 (stereo not drawn)			
13.2 µM	12.6 µM	15.7 µM	> 85%	CC(=O)N1CCC(C(=O)Nc2sc3c(c2C(N)=O)CCC(C)C3)CC1 (stereo not drawn)			
12.4 µM	23.7 µM	28.8 µM	> 85%	CCc1cc(C(=O)OC)c(NC(=O)C2CCN(C(C)=O)CC2)s1			
12.3 µM	18.2 µM	19 µM	> 85%	CC(C)(C)C(=O)N1CCN(c2ccc(NC(=O)c3cccnc3)cc2Cl)CC1	25.9 µM	> 100 µM	
5.5 µM	3.6 µM	3.6 µM	> 85%	CCc1ccc(NC(=O)CN2CCN(c3ccc(OC)cc3)CC2)cc1			
